{
  "source": "ChEMBL document CHEMBL1255438",
  "about": "“Comparative activities of TR-700 (torezolid) against staphylococcal blood isolates collected in Spain” (2010)",
  "assay_type_in_all_cases": "functional",
  "key": {"Staphylococcus aureus [1]": {"test_system": "Staphylococcus aureus", "test": "Antimicrobial activity against methicillin-resistant Staphylococcus aureus by CLSI method"}, "Staphylococcus [2]": {"test_system": "Staphylococcus", "test": "Antimicrobial activity against oxacillin-susceptible coagulase-negative Staphylococcus aureus by CLSI method"}, "Staphylococcus aureus [3]": {"test_system": "Staphylococcus aureus", "test": "Antimicrobial activity against oxacillin-resistant Staphylococcus aureus assessed as inhibition of microbial growth at =< 0.25 ug/ml by CLSI method"}, "Staphylococcus aureus [4]": {"test_system": "Staphylococcus aureus", "test": "Ratio of Linezolid MIC50 to compound MIC50 for Linezolid-susceptible Staphylococcus aureus"}, "Staphylococcus aureus [5]": {"test_system": "Staphylococcus aureus", "test": "Antimicrobial activity against oxacillin-susceptible Staphylococcus aureus assessed as inhibition of microbial growth at =< 0.25 ug/ml by CLSI method"}, "Staphylococcus aureus [6]": {"test_system": "Staphylococcus aureus", "test": "Antimicrobial activity against linezolid-resistant Staphylococcus aureus assessed as inhibition of microbial growth at 0.5 ug/ml by CLSI method"}, "Staphylococcus [7]": {"test_system": "Staphylococcus", "test": "Antimicrobial activity against linezolid-resistant coagulase-negative Staphylococcus assessed as inhibition of microbial growth at 1 ug/ml by CLSI method"}, "Staphylococcus [8]": {"test_system": "Staphylococcus", "test": "Antimicrobial activity against linezolid-resistant coagulase-negative Staphylococcus assessed as inhibition of microbial growth at 0.5 ug/ml by CLSI method"}, "Staphylococcus aureus [9]": {"test_system": "Staphylococcus aureus", "test": "Antimicrobial activity against linezolid-susceptible Staphylococcus aureus assessed as inhibition of microbial growth at =< 0.25 ug/ml by CLSI method"}, "Staphylococcus aureus [10]": {"test_system": "Staphylococcus aureus", "test": "Antimicrobial activity against oxacillin-susceptible Staphylococcus aureus assessed as inhibition of microbial growth at 0.5 ug/ml by CLSI method"}, "Staphylococcus aureus [11]": {"test_system": "Staphylococcus aureus", "test": "Antimicrobial activity against oxacillin-resistant Staphylococcus aureus assessed as inhibition of microbial growth at 0.5 ug/ml by CLSI method"}, "Staphylococcus aureus [12]": {"test_system": "Staphylococcus aureus", "test": "Antimicrobial activity against oxacillin-susceptible Staphylococcus aureus by CLSI method"}, "Staphylococcus aureus [13]": {"test_system": "Staphylococcus aureus", "test": "Antimicrobial activity against oxacillin-susceptible coagulase-negative Staphylococcus aureus assessed as inhibition of microbial growth at =< 0.25 ug/ml by CLSI method"}, "Staphylococcus aureus [14]": {"test_system": "Staphylococcus aureus", "test": "Antimicrobial activity against oxacillin-resistant Staphylococcus aureus by CLSI method"}, "Staphylococcus [15]": {"test_system": "Staphylococcus", "test": "Antimicrobial activity against Linezolid and methicillin-resistant coagulase-negative Staphylococcus by CLSI method"}, "Staphylococcus [16]": {"test_system": "Staphylococcus", "test": "Antimicrobial activity against teicoplanin and methicillin-resistant coagulase-negative Staphylococcus by CLSI method"}, "Staphylococcus aureus [17]": {"test_system": "Staphylococcus aureus", "test": "Ratio of Linezolid to compound activity for cfr-expressing methicillin-resistant Staphylococcus aureus"}, "Staphylococcus [18]": {"test_system": "Staphylococcus", "test": "Antimicrobial activity against linezolid-resistant coagulase-negative Staphylococcus assessed as inhibition of microbial growth at 4 ug/ml by CLSI method"}, "Staphylococcus aureus [19]": {"test_system": "Staphylococcus aureus", "test": "Antimicrobial activity against linezolid-resistant Staphylococcus aureus by CLSI method"}, "Staphylococcus aureus [20]": {"test_system": "Staphylococcus aureus", "test": "Antimicrobial activity against linezolid-susceptible Staphylococcus aureus assessed as inhibition of microbial growth at 0.5 ug/ml by CLSI method"}, "Staphylococcus [21]": {"test_system": "Staphylococcus", "test": "Antimicrobial activity against linezolid-susceptible coagulase-negative Staphylococcus assessed as inhibition of microbial growth at =< 0.25 ug/ml by CLSI method"}, "Staphylococcus aureus [22]": {"test_system": "Staphylococcus aureus", "test": "Antimicrobial activity against linezolid-susceptible Staphylococcus aureus by CLSI method"}, "Staphylococcus [23]": {"test_system": "Staphylococcus", "test": "Antimicrobial activity against linezolid-resistant coagulase-negative Staphylococcus assessed as inhibition of microbial growth at =< 0.25 ug/ml by CLSI method"}, "Staphylococcus [24]": {"test_system": "Staphylococcus", "test": "Antimicrobial activity against linezolid-susceptible coagulase-negative Staphylococcus by CLSI method"}, "Staphylococcus [25]": {"test_system": "Staphylococcus", "test": "Antimicrobial activity against linezolid-resistant coagulase-negative Staphylococcus by CLSI method"}, "Staphylococcus aureus [26]": {"test_system": "Staphylococcus aureus", "test": "Ratio of Linezolid MIC90 to compound MIC90 for Linezolid-susceptible Staphylococcus aureus"}, "Staphylococcus [27]": {"test_system": "Staphylococcus", "test": "Antimicrobial activity against linezolid-resistant coagulase-negative Staphylococcus assessed as inhibition of microbial growth at 2 ug/ml by CLSI method"}, "Staphylococcus [28]": {"test_system": "Staphylococcus", "test": "Antimicrobial activity against linezolid-susceptible coagulase-negative Staphylococcus assessed as inhibition of microbial growth at 0.5 ug/ml by CLSI method"}, "Staphylococcus [29]": {"test_system": "Staphylococcus", "test": "Antimicrobial activity against oxacillin-resistant coagulase-negative Staphylococcus aureus by CLSI method"}},
  "data": [
    {"smiles": "Cn1nnc(-c2ccc(-c3ccc(N4C[C@H](CO)OC4=O)cc3F)cn2)n1", "note": "[TEDIZOLID]", "values": [
      {"measurement": "MIC", "setting": "Staphylococcus aureus [1]", "value": 0.5, "unit": "µg/mL"},
      {"measurement": "MIC50", "setting": "Staphylococcus [2]", "value": 0.25, "unit": "µg/mL"},
      {"measurement": "MIC90", "setting": "Staphylococcus [2]", "value": 0.25, "unit": "µg/mL"},
      {"measurement": "inhibition (INH)", "setting": "Staphylococcus aureus [3]", "value": 70, "unit": "%"},
      {"measurement": "Ratio", "setting": "Staphylococcus aureus [4]", "value": 8},
      {"measurement": "inhibition (INH)", "setting": "Staphylococcus aureus [5]", "value": 99, "unit": "%"},
      {"measurement": "inhibition at 0.5 µg/mL", "setting": "Staphylococcus aureus [6]", "value": 100, "unit": "%"},
      {"measurement": "inhibition at 1 µg/mL", "setting": "Staphylococcus [7]", "value": 20, "unit": "%"},
      {"measurement": "inhibition at 0.5 µg/mL", "setting": "Staphylococcus [8]", "value": 20, "unit": "%"},
      {"measurement": "inhibition (INH)", "setting": "Staphylococcus aureus [9]", "value": 83.1, "unit": "%"},
      {"measurement": "inhibition at 0.5 µg/mL", "setting": "Staphylococcus aureus [10]", "value": 100, "unit": "%"},
      {"measurement": "inhibition at 0.5 µg/mL", "setting": "Staphylococcus aureus [11]", "value": 100, "unit": "%"},
      {"measurement": "MIC50", "setting": "Staphylococcus aureus [12]", "value": 0.25, "unit": "µg/mL"},
      {"measurement": "MIC90", "setting": "Staphylococcus aureus [12]", "value": 0.25, "unit": "µg/mL"},
      {"measurement": "inhibition (INH)", "setting": "Staphylococcus aureus [13]", "value": 100, "unit": "%"},
      {"measurement": "MIC50", "setting": "Staphylococcus aureus [14]", "value": 0.25, "unit": "µg/mL"},
      {"measurement": "MIC90", "setting": "Staphylococcus aureus [14]", "value": 0.5, "unit": "µg/mL"},
      {"measurement": "MIC", "setting": "Staphylococcus [15]", "value": 0.25, "unit": "µg/mL"},
      {"measurement": "MIC", "setting": "Staphylococcus [16]", "value": 0.25, "unit": "µg/mL"},
      {"measurement": "Ratio", "setting": "Staphylococcus aureus [17]", "value": 32},
      {"measurement": "inhibition at 4 µg/mL", "setting": "Staphylococcus [18]", "value": 100, "unit": "%"},
      {"measurement": "MIC50", "setting": "Staphylococcus aureus [19]", "value": 0.5, "unit": "µg/mL"},
      {"measurement": "inhibition at 0.5 µg/mL", "setting": "Staphylococcus aureus [20]", "value": 100, "unit": "%"},
      {"measurement": "inhibition (INH)", "setting": "Staphylococcus [21]", "value": 99.5, "unit": "%"},
      {"measurement": "MIC50", "setting": "Staphylococcus aureus [22]", "value": 0.25, "unit": "µg/mL"},
      {"measurement": "MIC90", "setting": "Staphylococcus aureus [22]", "value": 0.5, "unit": "µg/mL"},
      {"measurement": "inhibition (INH)", "setting": "Staphylococcus [23]", "value": 20, "unit": "%"},
      {"measurement": "MIC50", "setting": "Staphylococcus [24]", "value": 0.25, "unit": "µg/mL"},
      {"measurement": "MIC90", "setting": "Staphylococcus [24]", "value": 0.25, "unit": "µg/mL"},
      {"measurement": "MIC50", "setting": "Staphylococcus [25]", "value": 2, "unit": "µg/mL"},
      {"measurement": "Ratio", "setting": "Staphylococcus aureus [26]", "value": 4},
      {"measurement": "inhibition at 2 µg/mL", "setting": "Staphylococcus [27]", "value": 80, "unit": "%"},
      {"measurement": "inhibition at 0.5 µg/mL", "setting": "Staphylococcus [28]", "value": 100, "unit": "%"},
      {"measurement": "MIC50", "setting": "Staphylococcus [29]", "value": 0.125, "unit": "µg/mL"},
      {"measurement": "MIC90", "setting": "Staphylococcus [29]", "value": 0.25, "unit": "µg/mL"}
    ]}
  ]
}
